Laboratory results: patent publication US10597388B2, “Pyridazinone herbicides” (FMC CORPORATION, priority 2014, dated 2020)

Columns and labels:
Experiment in all cases: Test D controlled growth environment herbicide test, pre- and postemergence
Assay type in all cases: in vivo
[1] = system: wheat, spring (spring wheat, Triticum aestivum)
Procedure, shortened: (§1)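 Species sown in silt loam and sprayed preemergence, or grown in peat-based medium to 2–18 cm (1- to 4-leaf stage) and sprayed postemergence, with compounds in non-phytotoxic solvent plus surfactant. Visual injury scored versus controls after 14–21 d in a controlled environment, 0 (no effect) to 100 (complete control).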

[2] = system: wheat, winter (winter wheat, Triticum aestivum)
Procedure, shortened: as §1

[3] = system: galium (catchweed bedstraw, Galium aparine)
Procedure, shortened: as §1

[4] = system: pigweed (Amaranthus retroflexus)
Procedure, shortened: as §1

[5] = system: chickweed (common chickweed, Stellaria media)
Procedure, shortened: as §1

[6] = system: barley, spring (spring barley, Hordeum vulgare)
Procedure, shortened: as §1

[7] = system: buckwheat, wild (wild buckwheat, Polygonum convolvulus)
Procedure, shortened: as §1

[8] = system: field violet (Viola arvensis)
Procedure, shortened: as §1

[9] = system: oilseed rape (Brassica napus)
Procedure, shortened: as §1

[10] = system: canarygrass (Phalaris minor)
Procedure, shortened: as §1

kochia (Kochia scoparia) = system: kochia (Kochia scoparia)
Procedure, shortened: as §1

[11] = system: oat, wild (wild oat, Avena fatua)
Procedure, shortened: as §1

[12] = Postemergence, 31 g ai/ha, scale 0 to 100 (0 no effect, 100 complete control)
[13] = Postemergence, 125 g ai/ha, visual rating on scale 0 (no effect) to 100 (complete control), 14 to 21 d
[14] = Postemergence, 250 g ai/ha, scale 0 to 100 (0 no effect, 100 complete control)
[15] = Preemergence, 62 g ai/ha, scale 0 to 100 (0 no effect, 100 complete control)
[16] = Preemergence, 125 g ai/ha, scale 0 to 100 (0 no effect, 100 complete control)
[17] = Preemergence, 250 g ai/ha, scale 0 to 100, 0 no effect, 100 complete control
[18] = postemergence, 62 g ai/ha, scale 0 to 100, 0 no effect, 100 complete control

CCc1sc2c(C)cc(C)cc2c1-c1c(O)c(C)nn(C)c1=O [Compound 57]
60: Plant response rating, Oat, Wild [11, 17]
90: Galium plant response rating [3, 12] | Plant response rating, Galium [3, 13] | Plant response rating, Galium [3, 18]
80: Buckwheat, Wild plant response rating [7, 12] | Field Violet plant response rating [8, 12]
95: Plant response rating (scale of 0 to 100), Field Violet ([8]; Preemergence, 31 g ai/ha)
25: Plant response rating, Oilseed Rape [9, 17] | Plant response rating, Oilseed Rape [9, 18] | Plant response rating, Canarygrass [10, 14] | Plant response rating, Oat, Wild [11, 18]
100: Plant response rating, Galium [3, 15] | Plant response rating, Galium [3, 16] | Plant response rating, Galium [3, 17] | Plant response rating, Pigweed [4, 13] | Plant response rating, Pigweed [4, 14] | Plant response rating, Pigweed [4, 17] | Chickweed plant response rating [5, 12] | Plant response rating, Chickweed [5, 13] | Plant response rating, Chickweed [5, 14] | Plant response rating (scale of 0 to 100), Chickweed ([5]; Preemergence, 31 g ai/ha) | Plant response rating, Chickweed [5, 15] | Plant response rating, Chickweed [5, 16] | Plant response rating, Chickweed [5, 17] | Plant response rating, Chickweed [5, 18] | Plant response rating, Buckwheat, Wild [7, 14] | Plant response rating, Buckwheat, Wild [7, 17] | Plant response rating, Field Violet [8, 15] | Plant response rating, Field Violet [8, 16] | Plant response rating, Field Violet [8, 17] | Plant response rating, Kochia (kochia (Kochia scoparia); [17])
55: Plant response rating, Canarygrass [10, 16] | Plant response rating, Kochia (kochia (Kochia scoparia); [18])
15: Plant response rating, Wheat, Winter [2, 14] | Plant response rating, Canarygrass [10, 13] | Oat, Wild plant response rating [11, 12] | Plant response rating (scale of 0 to 100), Oat, Wild ([11]; Preemergence, 31 g ai/ha)
98: Plant response rating, Galium [3, 14] | Plant response rating, Pigweed [4, 16]
85: Plant response rating (scale of 0 to 100), Galium ([3]; Preemergence, 31 g ai/ha) | Pigweed plant response rating [4, 12] | Plant response rating, Pigweed [4, 18] | Plant response rating, Buckwheat, Wild [7, 13] | Plant response rating, Buckwheat, Wild [7, 18] | Plant response rating, Field Violet [8, 14] | Plant response rating, Oat, Wild [11, 14]
30: Plant response rating, Oat, Wild [11, 15]
10: Plant response rating, Wheat, Spring [1, 13] | Plant response rating, Wheat, Spring [1, 14] | Plant response rating, Wheat, Spring [1, 17] | Plant response rating, Wheat, Spring [1, 18] | Plant response rating, Wheat, Winter [2, 13] | Plant response rating, Wheat, Winter [2, 17] | Plant response rating, Wheat, Winter [2, 18] | Barley, Spring plant response rating [6, 12] | Plant response rating, Barley, Spring [6, 13] | Plant response rating, Barley, Spring [6, 14] | Plant response rating, Barley, Spring [6, 15] | Plant response rating, Barley, Spring [6, 16] | Plant response rating, Barley, Spring [6, 17] | Plant response rating, Barley, Spring [6, 18] | Plant response rating, Buckwheat, Wild [7, 15] | Plant response rating, Buckwheat, Wild [7, 16] | Plant response rating, Canarygrass [10, 15] | Plant response rating (scale of 0 to 100), Kochia (kochia (Kochia scoparia); Preemergence, 31 g ai/ha) | Plant response rating, Kochia (kochia (Kochia scoparia); [15])
65: Plant response rating, Oilseed Rape [9, 13] | Plant response rating, Oilseed Rape [9, 14] | Plant response rating, Canarygrass [10, 17] | Plant response rating, Kochia (kochia (Kochia scoparia); [13]) | Plant response rating, Oat, Wild [11, 13]
40: Kochia plant response rating (kochia (Kochia scoparia); [12])
75: Plant response rating, Pigweed [4, 15] | Plant response rating, Field Violet [8, 13] | Plant response rating, Kochia (kochia (Kochia scoparia); [14])
50: Plant response rating, Oat, Wild [11, 16]
35: Plant response rating, Kochia (kochia (Kochia scoparia); [16])
20: Oilseed Rape plant response rating [9, 12]
0: Wheat, Spring plant response rating [1, 12] | Plant response rating (scale of 0 to 100), Buckwheat, Wild ([7]; Preemergence, 31 g ai/ha) | Plant response rating (scale of 0 to 100), Oilseed Rape ([9]; Preemergence, 31 g ai/ha) | Plant response rating, Oilseed Rape [9, 15] | Plant response rating, Oilseed Rape [9, 16] | Plant response rating (scale of 0 to 100), Canarygrass ([10]; Preemergence, 31 g ai/ha)
5: Plant response rating (scale of 0 to 100), Wheat, Spring ([1]; Preemergence, 31 g ai/ha) | Plant response rating, Wheat, Spring [1, 15] | Plant response rating, Wheat, Spring [1, 16] | Wheat, Winter plant response rating [2, 12] | Plant response rating (scale of 0 to 100), Wheat, Winter ([2]; Preemergence, 31 g ai/ha) | Plant response rating, Wheat, Winter [2, 15] | Plant response rating, Wheat, Winter [2, 16] | Plant response rating (scale of 0 to 100), Barley, Spring ([6]; Preemergence, 31 g ai/ha) | Canarygrass plant response rating [10, 12] | Plant response rating, Canarygrass [10, 18]
70: Plant response rating (scale of 0 to 100), Pigweed ([4]; Preemergence, 31 g ai/ha) | Plant response rating, Field Violet [8, 18]
